Data published in EPA's ToxValDB 9.5 (doi:10.2903/j.efsa.2014.3691).
“And” between values parts separate entries of the source, which are not always exact repeats. Identical values can stand only once.

Legend:
Apis mellifera = details: acute, duration: 48 hours, mortality
Typhlodromus pyri = details: chronic/long-term; duration: 14 days; reproduction
Lepomis macrochirus = details: acute; duration: 96 hours; mortality
Daphnia magna = details: chronic/long-term; duration: 22 days; reproduction
Tagia sp. = details: acute; duration: 14 days; mortality
Anas platyrhynchos = details: short-term; oral; feed; mortality

## CSC(=O)c1cccc2nnsc12 [Acibenzolar-S-methyl]
Apis mellifera; dermal
  LD50: > 100 µg/piece
Apis mellifera; oral, unspecified
  LD50: 128 µg/piece
Typhlodromus pyri
  LEL: 30 g/ha
Lepomis macrochirus
  LC50: 2.8 µg/mL and 1.6 µg/mL
Rattus norvegicus; acute, oral, mortality
  LD50: > 2000 mg/kg
Rattus norvegicus; reproduction developmental, body weight
  LOAEL: 10 mg/kg-day
Rattus norvegicus; reproduction developmental, oral, diet
  NOAEL: 15 mg/kg-day
Colinus virginianus; acute, oral, mortality
  LD50: > 2000 mg/kg
Colinus virginianus; reproduction developmental, reproduction
  NOEC: 61 mg/kg-day
Daphnia magna
  NOEC: 44 µg/L
Oncorhynchus mykiss; acute, duration: 96 hours, mortality
  LC50: 0.4 µg/mL and 1.1 µg/mL and 0.88 µg/mL
Oncorhynchus mykiss; chronic/long-term, duration: 87 days
  NOEC: 26 µg/L
Tagia sp.
  LC50: > 500 mg/kg
Anas platyrhynchos
  LC50: > 1540 mg/kg-day
